Results on three sequences are retold here after publication doi:10.1101/2024.12.16.628703v1 (bioRxiv, 2024).

Marks after values point to notes of the source that are not given here.

In series [1] the test system is E. huxleyi. Description: CPP translocation by flow cytometry. Format: cell-based, Emiliania huxleyi. Particulars: for FITC-positive cells / FITC-positive cells achieved over the range tested: titer experiment, flow cytometry, average of 2 experiments; for FITC-positive cells achieved over the range tested: 20 to 320 µM CPP.
The test system of series [2] is G. oceanica. Description: CPP translocation by flow cytometry. In kind it is cell-based, Gephyrocapsa oceanica. Particulars: for increase in median fluorescence per increase in concentration of 1 µM: regression of titer data, FITC-positive population; for increase in median fluorescence per increase in concentration of 1 µM / regression equation, Median Fluorescence versus CPP concentration: separate experiment; for regression equation, Median Fluorescence versus CPP concentration: titer data 20-320 µM, flow cytometry ex 488 / em 525 nm. For orientation: In flow cytometry, cells or beads pass a laser one at a time.

Series [3] relates to I. galbana. Nature of the series: CPP translocation by flow cytometry. Format: cell-based, Isochrysis galbana. Particulars: for percentage of cells penetrated (FITC-positive) / translocation (FITC-positive cells): DOE, trypsin wash; for percentage of cells penetrated (FITC-positive): FITC-Ahx-CPP 10 µM; for percentage of cells penetrated (FITC-positive) / FITC-positive cells / FITC-positive cells achieved over the range tested / translocation (FITC-positive cells): flow cytometry; for FITC-positive cells / FITC-positive cells achieved over the range tested: titer experiment, single experiment; for FITC-positive cells achieved over the range tested: 20 to 320 µM CPP; for translocation (FITC-positive cells): FITC-Ahx-CPP 2 µM.

In series [4] the test system is I. galbana. Nature of the series: Viability / cell proliferation after CPP transfection. Format: cell-based, Isochrysis galbana. Particulars: growth curve 14 days.
The subject of series [5] is animal cells. Particulars: ref [7],[8],[23]; cited from earlier work.
Series [6] concerns algae. Particulars: ref [7],[8],[23]; cited from earlier work.
Where [7] appears, read: titer data 20-320 µM, separate experiment, flow cytometry ex 488 / em 525 nm.

For “LLIILRRRIRKQAHAHSK [pVEC, murine vascular endothelial cadherin]”, the “effect on median fluorescence with rising concentration” value in series [1] (titer experiment 20-320 µM) is recorded as “reaches a plateau from 160 to 320 µM”. Besides, the “optimal concentration for translocation, irrespective of viability” value in series [1] (titer experiment 20-320 µM) is listed as 160 µM; in series [2] (titer experiment 20-320 µM), 160 µM; in series [3] (titer experiment 20-320 µM), 80 µM. The FITC-positive cells was over 80% in series [1] (20 µM CPP); “more than 90%” in series [1] (160 µM CPP); “over 95%” in series [1] (320 µM CPP); “less than 20%” in series [3] (20 µM CPP); “over 90%” in series [3] (80 µM CPP); “approximately 85%” in series [3] (160 µM CPP). For the same sequence, the “FITC-positive cells achieved over the range tested” value was “more than 80%” in series [1] and 80% in series [3]. In addition, in series [2], the “increase in median fluorescence per increase in concentration of 1 µM” value worked out at 184 RFU. Also, the “regression equation, Median Fluorescence versus CPP concentration” value in series [2] is listed as 16133 + 184.1 * pVEC concentration. In series [2] (titer experiment, 20 to 320 µM CPP, flow cytometry, average of 2 experiments), the “percent-positive achieved over the range tested” value is “more than 80%”. Moreover, in series [3], the “percentage of cells penetrated (FITC-positive)” value stood at 39%. Moreover, the “proliferation of cells sorted for high FITC fluorescence” value in series [4] (160 and 320 µM pVEC, sorted by FACS) is on record as “proliferation of viable cells”. In addition, in series [4] (pVEC at 20 µM, sorted cells), the “viability after CPP treatment” value is “apparent decrease in viability”.
For the sequence “RQIKIWFQNRRMKWKK [pAntp, antennapedia homeodomain]”, the “translocation (FITC-positive cells)” value in series [3] is “do not translocate”. In addition, the “cytotoxicity at concentrations as low as” value is recorded as 40 µM in series [5] and 10 µM in series [6].
In the case of “GRKKRRQRRRPPQ [TAT, transactivating transcriptional activator]”, the “regression equation, Median Fluorescence versus CPP concentration” value in series [1] (setting [7]) is listed as 15145 + 35.47 * TAT concentration; in series [2] it was 10953 + 52.48 * TAT concentration; in series [3] (setting [7]) it was 16534 + 11.73 * TAT concentration. Also, the FITC-positive cells result is given as “less than 20%” in series [1] (20 µM CPP), “over 40%” in series [1] (160 µM CPP) and “over 60%” in series [1] (320 µM CPP). Also, the “FITC-positive cells achieved over the range tested” value is under 80% in series [1] and under 20% in series [3]. In series [2], the “increase in median fluorescence per increase in concentration of 1 µM” value worked out at 53 RFU. Further, the “translocation (FITC-positive cells)” value in series [3] is given as “do not translocate”. For the same sequence, the “percentage of cells penetrated (FITC-positive)” value in series [3] is listed as “do not translocate”.
